Test results: patent US10457691B2, “Macrocyclic kinase inhibitors and uses thereof” (Dana-Farber Cancer Institute, Inc., priority 2014, dated 2019)

Experiments:
Format in all cases: biochemical
Conditions in all cases: read-out: Activity of the protein kinase when treated with compound I-1 (% control)
BRSK1 = BRSK1 (Homo sapiens, UniProt Q8TDC3); assay: Protein kinase assay ([γ-32P] ATP), BRSK1
Protocol: (§1) In another set of experiments, the activities of the compounds described herein against various protein kinases were determined according to the methods reported in Hastie et al., Nature Protocols, 2006, 1, 968-971.
(§2) Enzyme dilution buffer. This buffer consisted of 50 mM Tris-HCl, pH 7.5, 0.1 mM EGTA, 1 mg ml^−1 bovine serum albumin and 0.1% (vol/vol) 2-mercaptoethanol.
(§3) 10× concentrated assay buffer. An assay buffer of 500 mM Tris-HCl, pH 7.5, 1 mM EGTA, and 100 mM magnesium acetate was used for assay of a wide variety of protein kinases. In some experiments, other cofactors were included (e.g., calcium ions and calmodulin were included for assay of calcium-calmodulindependent protein kinases).
(§4) 1 mM [γ-^32P] ATP. The specific activity of the [γ-^32P] ATP solution was 1×10^5 to 1×10^6 c.p.m. per nmol depending on what was needed to produce an optimal signal/noise ratio. […] To measure the concentration of ATP, a sample of such a stock solution was diluted to 20 μM, and the absorbance of the diluted sample was measured at 259 nm. The absorbance of a 20-μM stock solution of ATP at 259 nm was about 0.31. […] ATP to produce a radioactivity of 1×10^5 to 1×10^6 c.p.m. per nmol. […]
(§5) 13) Measure radioactivity in the samples by Cerenkov counting (e.g., without liquid scintillation fluid) in a liquid scintillation counter using a “^32P program”. […]

BTK = BTK (Homo sapiens, UniProt Q06187); assay: Protein kinase assay ([γ-32P] ATP), BTK
Protocol: as §1, §2, §3, §4, §5

EPH-B1 = EPH-B1 (Homo sapiens, UniProt P54762); assay: Protein kinase assay ([γ-32P] ATP), EPH-B1
Protocol: as §1, §2, §3, §4, §5

EPH-B3 = EPH-B3 (Homo sapiens, UniProt P54753); assay: Protein kinase assay ([γ-32P] ATP), EPH-B3
Protocol: as §1, §2, §3, §4, §5

ERK2 = ERK2 (Homo sapiens, UniProt P28482); assay: Protein kinase assay ([γ-32P] ATP), ERK2
Protocol: as §1, §2, §3, §4, §5

HIPK3 = HIPK3 (Homo sapiens, UniProt Q9H422); assay: Protein kinase assay ([γ-32P] ATP), HIPK3
Protocol: as §1, §2, §3, §4, §5

IKKe = IKKe (Homo sapiens, UniProt Q14164); assay: Protein kinase assay ([γ-32P] ATP), IKKe
Protocol: as §1, §2, §3, §4, §5

IRAK4 = IRAK4 (Homo sapiens, UniProt Q9NWZ3); assay: Protein kinase assay ([γ-32P] ATP), IRAK4
Protocol: as §1, §2, §3, §4, §5

IRR = IRR (Homo sapiens, UniProt P14616); assay: Protein kinase assay ([γ-32P] ATP), IRR
Protocol: as §1, §2, §3, §4, §5

JNK2 = JNK2 (Homo sapiens, UniProt P45984); assay: Protein kinase assay ([γ-32P] ATP), JNK2
Protocol: as §1, §2, §3, §4, §5

MNK2 = MNK2 (Homo sapiens, UniProt Q9HBH9); assay: Protein kinase assay ([γ-32P] ATP), MNK2
Protocol: as §1, §2, §3, §4, §5

NUAK1 = NUAK1 (Homo sapiens, UniProt O60285); assay: Protein kinase assay ([γ-32P] ATP), NUAK1
Protocol: as §1, §2, §3, §4, §5

OSR1 = OSR1 (Homo sapiens, UniProt O95747); assay: Protein kinase assay ([γ-32P] ATP), OSR1
Protocol: as §1, §2, §3, §4, §5

PIM1 = PIM1 (Homo sapiens, UniProt P11309); assay: Protein kinase assay ([γ-32P] ATP), PIM1
Protocol: as §1, §2, §3, §4, §5

STK33 = STK33 (Homo sapiens, UniProt Q9BYT3); assay: Protein kinase assay ([γ-32P] ATP), STK33
Protocol: as §1, §2, §3, §4, §5

TAK1 = TAK1 (Homo sapiens, UniProt O43318); assay: Protein kinase assay ([γ-32P] ATP), TAK1
Protocol: as §1, §2, §3, §4, §5

TLK1 = TLK1 (Homo sapiens, UniProt Q9UKI8); assay: Protein kinase assay ([γ-32P] ATP), TLK1
Protocol: as §1, §2, §3, §4, §5

[1] = 0.1 μM of compound I-1, DMSO control = 100%
[2] = 1 μM of compound I-1, DMSO control = 100%

JNK2, sequence (P45984 whole entry): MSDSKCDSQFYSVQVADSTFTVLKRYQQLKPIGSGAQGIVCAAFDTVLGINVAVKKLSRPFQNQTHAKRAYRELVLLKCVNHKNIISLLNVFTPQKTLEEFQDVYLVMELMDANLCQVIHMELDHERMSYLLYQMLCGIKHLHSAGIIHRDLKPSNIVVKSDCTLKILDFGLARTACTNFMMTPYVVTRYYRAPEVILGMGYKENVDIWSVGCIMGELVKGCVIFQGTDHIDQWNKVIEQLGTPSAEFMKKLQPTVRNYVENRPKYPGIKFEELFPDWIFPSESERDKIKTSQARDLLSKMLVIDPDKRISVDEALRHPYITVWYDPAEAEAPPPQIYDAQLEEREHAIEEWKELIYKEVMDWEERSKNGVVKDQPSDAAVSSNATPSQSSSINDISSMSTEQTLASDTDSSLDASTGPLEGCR
PIM1, sequence (P11309 whole entry): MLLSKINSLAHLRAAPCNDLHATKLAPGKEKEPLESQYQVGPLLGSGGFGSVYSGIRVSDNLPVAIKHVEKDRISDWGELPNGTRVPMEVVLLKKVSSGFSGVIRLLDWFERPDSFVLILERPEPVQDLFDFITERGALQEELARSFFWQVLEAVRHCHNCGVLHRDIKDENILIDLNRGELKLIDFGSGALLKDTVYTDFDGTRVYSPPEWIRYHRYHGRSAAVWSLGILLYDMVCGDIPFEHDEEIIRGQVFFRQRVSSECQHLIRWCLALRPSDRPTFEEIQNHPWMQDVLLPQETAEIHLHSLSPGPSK
NUAK1, sequence (O60285 whole entry): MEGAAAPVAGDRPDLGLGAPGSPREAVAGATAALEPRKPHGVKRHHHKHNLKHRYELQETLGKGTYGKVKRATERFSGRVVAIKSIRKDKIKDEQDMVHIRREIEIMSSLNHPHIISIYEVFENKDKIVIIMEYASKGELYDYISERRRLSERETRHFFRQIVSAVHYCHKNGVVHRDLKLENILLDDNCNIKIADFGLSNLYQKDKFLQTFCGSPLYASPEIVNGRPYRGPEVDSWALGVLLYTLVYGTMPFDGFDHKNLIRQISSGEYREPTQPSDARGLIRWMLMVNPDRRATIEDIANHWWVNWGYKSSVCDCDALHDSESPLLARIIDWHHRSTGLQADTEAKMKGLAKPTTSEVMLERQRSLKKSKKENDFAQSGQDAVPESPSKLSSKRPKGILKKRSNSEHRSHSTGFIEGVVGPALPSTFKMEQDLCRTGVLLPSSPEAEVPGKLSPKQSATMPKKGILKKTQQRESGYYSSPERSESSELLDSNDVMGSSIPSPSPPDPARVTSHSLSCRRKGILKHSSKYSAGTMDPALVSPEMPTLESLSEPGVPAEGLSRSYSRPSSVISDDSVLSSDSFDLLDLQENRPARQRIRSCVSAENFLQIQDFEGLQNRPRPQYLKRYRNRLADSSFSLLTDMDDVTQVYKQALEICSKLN
IRAK4, sequence (Q9NWZ3 whole entry): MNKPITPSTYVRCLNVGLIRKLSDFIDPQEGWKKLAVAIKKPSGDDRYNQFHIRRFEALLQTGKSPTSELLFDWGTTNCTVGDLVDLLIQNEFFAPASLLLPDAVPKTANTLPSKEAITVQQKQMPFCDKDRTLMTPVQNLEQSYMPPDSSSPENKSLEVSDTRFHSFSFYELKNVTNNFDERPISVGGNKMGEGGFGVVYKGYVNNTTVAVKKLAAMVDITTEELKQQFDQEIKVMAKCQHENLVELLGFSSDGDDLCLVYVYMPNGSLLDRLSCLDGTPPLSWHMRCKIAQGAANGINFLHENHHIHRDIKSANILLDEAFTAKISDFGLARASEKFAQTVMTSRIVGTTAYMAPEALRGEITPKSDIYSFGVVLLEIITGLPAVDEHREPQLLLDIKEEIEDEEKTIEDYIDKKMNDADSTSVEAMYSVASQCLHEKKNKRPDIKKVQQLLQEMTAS
ERK2, sequence (P28482 whole entry): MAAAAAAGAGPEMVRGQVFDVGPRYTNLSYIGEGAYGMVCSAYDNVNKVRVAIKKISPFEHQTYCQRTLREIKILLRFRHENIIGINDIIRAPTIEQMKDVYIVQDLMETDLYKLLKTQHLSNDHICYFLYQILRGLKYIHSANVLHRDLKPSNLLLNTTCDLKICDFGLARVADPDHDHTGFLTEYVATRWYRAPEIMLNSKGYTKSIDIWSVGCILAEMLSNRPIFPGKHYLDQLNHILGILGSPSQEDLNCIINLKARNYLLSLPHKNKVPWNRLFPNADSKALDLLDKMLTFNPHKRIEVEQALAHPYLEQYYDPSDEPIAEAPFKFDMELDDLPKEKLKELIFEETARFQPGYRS
TLK1, sequence (Q9UKI8 whole entry, species assumed): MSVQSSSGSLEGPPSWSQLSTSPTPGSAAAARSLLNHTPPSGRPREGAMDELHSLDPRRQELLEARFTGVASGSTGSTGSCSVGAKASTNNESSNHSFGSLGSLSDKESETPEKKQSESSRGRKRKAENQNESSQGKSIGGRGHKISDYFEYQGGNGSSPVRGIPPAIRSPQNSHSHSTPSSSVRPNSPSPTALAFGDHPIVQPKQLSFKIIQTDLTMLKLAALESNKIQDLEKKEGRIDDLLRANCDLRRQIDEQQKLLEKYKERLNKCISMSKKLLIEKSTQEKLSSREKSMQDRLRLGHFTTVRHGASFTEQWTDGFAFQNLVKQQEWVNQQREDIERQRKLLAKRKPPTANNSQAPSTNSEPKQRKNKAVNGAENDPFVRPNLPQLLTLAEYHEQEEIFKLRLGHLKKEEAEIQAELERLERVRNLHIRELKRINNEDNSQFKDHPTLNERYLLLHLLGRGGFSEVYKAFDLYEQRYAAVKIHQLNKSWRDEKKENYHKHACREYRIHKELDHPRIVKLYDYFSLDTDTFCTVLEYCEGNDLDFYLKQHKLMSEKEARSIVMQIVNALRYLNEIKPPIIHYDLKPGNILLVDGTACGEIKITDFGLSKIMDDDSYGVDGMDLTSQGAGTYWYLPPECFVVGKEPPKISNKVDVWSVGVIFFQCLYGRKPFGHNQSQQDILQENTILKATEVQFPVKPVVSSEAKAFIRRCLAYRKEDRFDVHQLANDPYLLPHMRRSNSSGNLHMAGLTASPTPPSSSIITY
HIPK3, sequence (Q9H422 whole entry): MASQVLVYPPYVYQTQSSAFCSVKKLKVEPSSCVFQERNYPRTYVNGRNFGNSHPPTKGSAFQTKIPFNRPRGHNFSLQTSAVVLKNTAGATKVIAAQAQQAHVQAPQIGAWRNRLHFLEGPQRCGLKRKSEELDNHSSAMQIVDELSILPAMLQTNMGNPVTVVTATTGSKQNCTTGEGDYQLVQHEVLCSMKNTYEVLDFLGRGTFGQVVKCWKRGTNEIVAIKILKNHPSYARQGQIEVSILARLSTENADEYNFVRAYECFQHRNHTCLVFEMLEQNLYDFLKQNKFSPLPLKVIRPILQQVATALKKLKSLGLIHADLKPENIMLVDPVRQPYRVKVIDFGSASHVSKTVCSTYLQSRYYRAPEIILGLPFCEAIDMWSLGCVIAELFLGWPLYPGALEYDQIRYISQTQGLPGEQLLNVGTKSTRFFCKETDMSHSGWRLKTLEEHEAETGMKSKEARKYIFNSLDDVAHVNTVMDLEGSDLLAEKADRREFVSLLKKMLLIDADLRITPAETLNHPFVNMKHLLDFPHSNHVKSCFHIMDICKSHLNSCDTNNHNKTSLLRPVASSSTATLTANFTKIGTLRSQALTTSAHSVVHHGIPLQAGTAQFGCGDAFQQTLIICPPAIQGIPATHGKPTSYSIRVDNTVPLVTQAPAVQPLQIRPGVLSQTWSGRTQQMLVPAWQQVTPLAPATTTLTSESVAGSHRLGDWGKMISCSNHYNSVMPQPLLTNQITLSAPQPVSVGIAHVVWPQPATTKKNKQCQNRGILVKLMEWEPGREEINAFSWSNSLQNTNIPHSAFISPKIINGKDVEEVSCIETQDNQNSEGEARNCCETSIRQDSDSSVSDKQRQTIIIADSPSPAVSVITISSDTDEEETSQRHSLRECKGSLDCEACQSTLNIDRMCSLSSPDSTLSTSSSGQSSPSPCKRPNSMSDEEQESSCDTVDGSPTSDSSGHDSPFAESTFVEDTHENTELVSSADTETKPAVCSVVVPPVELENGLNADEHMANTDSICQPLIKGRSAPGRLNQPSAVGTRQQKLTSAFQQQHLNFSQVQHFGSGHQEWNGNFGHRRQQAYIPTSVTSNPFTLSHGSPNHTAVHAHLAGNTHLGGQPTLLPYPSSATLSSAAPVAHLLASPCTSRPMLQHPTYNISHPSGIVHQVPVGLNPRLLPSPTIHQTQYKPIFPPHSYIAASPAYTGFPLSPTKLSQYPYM
IKKe, sequence (Q14164 whole entry): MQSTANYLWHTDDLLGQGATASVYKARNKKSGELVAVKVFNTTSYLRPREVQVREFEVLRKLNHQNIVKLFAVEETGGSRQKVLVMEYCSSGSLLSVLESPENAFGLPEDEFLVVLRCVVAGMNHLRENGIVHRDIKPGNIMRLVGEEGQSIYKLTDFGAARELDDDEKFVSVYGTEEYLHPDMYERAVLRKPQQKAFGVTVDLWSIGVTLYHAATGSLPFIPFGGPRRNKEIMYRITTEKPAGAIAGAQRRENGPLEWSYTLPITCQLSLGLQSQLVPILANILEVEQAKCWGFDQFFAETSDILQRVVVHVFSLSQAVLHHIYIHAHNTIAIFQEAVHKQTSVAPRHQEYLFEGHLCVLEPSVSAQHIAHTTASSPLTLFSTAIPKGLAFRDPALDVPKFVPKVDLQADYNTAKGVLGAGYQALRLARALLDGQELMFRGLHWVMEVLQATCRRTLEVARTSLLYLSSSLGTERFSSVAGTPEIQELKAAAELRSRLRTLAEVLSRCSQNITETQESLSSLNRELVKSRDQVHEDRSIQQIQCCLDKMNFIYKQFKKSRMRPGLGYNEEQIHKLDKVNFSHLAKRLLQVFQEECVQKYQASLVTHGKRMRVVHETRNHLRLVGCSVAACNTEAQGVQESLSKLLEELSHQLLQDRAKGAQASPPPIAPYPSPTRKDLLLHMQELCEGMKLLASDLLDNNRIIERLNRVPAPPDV

Cc1cccc(C)c1NC(=O)N1C/C=C\COc2cccc(c2)Nc2cc1ncn2 [Compound I-1]
remaining activity at 0.1 µM (BRSK1; [1]): 87% | remaining activity at 1 µM (BRSK1; [2]): 66% | remaining activity at 0.1 µM (BTK; [1]): 46% | remaining activity at 1 µM (BTK; [2]): 48% | remaining activity at 0.1 µM (EPH-B1; [1]): 40% | remaining activity at 1 µM (EPH-B1; [2]): 43% | remaining activity at 0.1 µM (EPH-B3; [1]): 25% | remaining activity at 1 µM (EPH-B3; [2]): 2% | remaining activity at 0.1 µM (ERK2; [1]): 104% | remaining activity at 1 µM (ERK2; [2]): 80% | remaining activity at 0.1 µM (HIPK3; [1]): 89% | remaining activity at 1 µM (HIPK3; [2]): 81% | remaining activity at 0.1 µM (IKKe; [1]): 111% | remaining activity at 1 µM (IKKe; [2]): 90% | remaining activity at 0.1 µM (IRAK4; [1]): 92% | remaining activity at 1 µM (IRAK4; [2]): 86% | remaining activity at 0.1 µM (IRR; [1]): 98% | remaining activity at 1 µM (IRR; [2]): 83% | remaining activity at 0.1 µM (JNK2; [1]): 81% | remaining activity at 1 µM (JNK2; [2]): 34% | remaining activity at 0.1 µM (MNK2; [1]): 104% | remaining activity at 1 µM (MNK2; [2]): 108% | remaining activity at 0.1 µM (NUAK1; [1]): 100% | remaining activity at 1 µM (NUAK1; [2]): 93% | remaining activity at 0.1 µM (OSR1; [1]): 97% | remaining activity at 1 µM (OSR1; [2]): 79% | remaining activity at 0.1 µM (PIM1; [1]): 132% | remaining activity at 1 µM (PIM1; [2]): 93% | remaining activity at 0.1 µM (STK33; [1]): 116% | remaining activity at 1 µM (STK33; [2]): 100% | remaining activity at 0.1 µM (TAK1; [1]): 105% | remaining activity at 1 µM (TAK1; [2]): 81% | remaining activity at 0.1 µM (TLK1; [1]): 112% | remaining activity at 1 µM (TLK1; [2]): 92%
